By pIC50 is commonly meant −log10 of the IC50, conventionally taken in molar units.

pIC50: −log10 of the molar value.

The target of test [1] is T1, acyl-CoA: cholesterol acyltransferase (ACAT) (Rattus norvegicus, UniProt Q7TQM4).
T1 construct: Microsomes were obtained by differential centrifugation; from tissue; host or cells: liver microsomes of male Sprague Dawley rats
T1 sequence (Q7TQM4 1-524): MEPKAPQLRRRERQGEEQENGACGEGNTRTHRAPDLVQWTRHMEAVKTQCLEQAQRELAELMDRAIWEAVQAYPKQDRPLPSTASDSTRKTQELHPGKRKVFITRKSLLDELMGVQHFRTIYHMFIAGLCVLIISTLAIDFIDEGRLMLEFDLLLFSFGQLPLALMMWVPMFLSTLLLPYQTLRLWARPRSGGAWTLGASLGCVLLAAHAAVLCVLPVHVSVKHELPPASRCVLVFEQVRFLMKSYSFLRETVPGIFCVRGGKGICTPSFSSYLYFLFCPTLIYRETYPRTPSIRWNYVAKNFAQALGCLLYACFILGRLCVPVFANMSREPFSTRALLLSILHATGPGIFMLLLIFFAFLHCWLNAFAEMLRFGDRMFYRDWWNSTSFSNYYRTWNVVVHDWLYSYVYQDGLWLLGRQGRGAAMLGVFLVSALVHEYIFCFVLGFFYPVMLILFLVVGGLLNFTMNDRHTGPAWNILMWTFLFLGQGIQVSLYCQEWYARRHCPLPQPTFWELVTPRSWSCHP
The test is described as follows: Inhibition of Acyl-CoA: Cholesterol Acyltransferase (ACAT) in hepatic microsomes (in vitro hepatic ACAT activity). The format is biochemical, rat (male Sprague Dawley). The conditions noted are these: 14C-oleoyl-CoA, 15 min preincubation at 37° C., pH 7.4, read-out: Inhibition of Cholesterol Esterification (IC50). As to the method:
The ability of the compounds to inhibit ACAT, the enzyme responsible for the intracellular synthesis of cholesteryl esters, was tested as follows. Male Sprague Dawley rats weighing 150-300 g, were fed rat chow ad libitum. The animals were fasted for twenty-four hours prior to being sacrificed by decapitation. The livers were perfused in situ with 50 ml of cold 0.25M sucrose, excised, and homogenized in three volumes of 0.1M phosphate buffer, pH 7.4, that contained 0.5 mM EDTA (ethylenediaminetetraacetic acid), 1.0 mM glutathione, 0.25M sucrose and […]. Microsomes were obtained by differential centrifugation; the supernatant from an initial spin at 15,000×g for 15 minutes was centrifuged at 105,000×g for 1 hour to pellet the microsomes. The microsomes were suspended in homogenization buffer, reisolated by centrifugation, and stored at -70° C. Microsomes were used within one month of preparation.
The control assay in a final volume of 200 μl consisted of 200 μg of microsomal protein, 75μ<^14 C-oleoyl-CoA (10,000 dpm/nmol) in 0.1M phosphate, pH 7.4, that contained 1 mM glutathione. Compounds were added in 5 μl of DMSO (dimethyl sulfoxide) and additional controls were run with DMSO only. All components, except the oleoyl-CoA, were preincubated for 15 min. at 37° C. prior to the initiation of the reaction by the addition of oleoyl-CoA. The assay was terminated after 10 min. by the addition of 4 ml of chloroform:methanol (2:1, v/v). 20,000 dpm of 3H-choledsteryl oleate and 10 μg of unlabeled cholesteryl oleate and oleic acid were added as an internal standard and carriers, respectively. After allowing 10 min. for lipid extraction, 0.8 ml of deionized water was added to separte the solution into two phases. The lower chloroform phase was collected, dried under nitrogen and resuspended in 2 ml of hexane:diethyl ether (97:3 v/v). The lipids were then loaded onto BAKERSBOND spe* silica gel columns. Extracts were collected in scintillation vials and counted for radioactivity. The specific activity of ACAT in the control incubation averaged 260 pmol/min/mg microsomal protein.

For the next test, the target named is T2, ACAT (Mus musculus, UniProt Q61263).
T2 construct: endogenous in cells; host or cells: J774.A1 (murine macrophage-like)
T2 sequence (Q61263 1-540): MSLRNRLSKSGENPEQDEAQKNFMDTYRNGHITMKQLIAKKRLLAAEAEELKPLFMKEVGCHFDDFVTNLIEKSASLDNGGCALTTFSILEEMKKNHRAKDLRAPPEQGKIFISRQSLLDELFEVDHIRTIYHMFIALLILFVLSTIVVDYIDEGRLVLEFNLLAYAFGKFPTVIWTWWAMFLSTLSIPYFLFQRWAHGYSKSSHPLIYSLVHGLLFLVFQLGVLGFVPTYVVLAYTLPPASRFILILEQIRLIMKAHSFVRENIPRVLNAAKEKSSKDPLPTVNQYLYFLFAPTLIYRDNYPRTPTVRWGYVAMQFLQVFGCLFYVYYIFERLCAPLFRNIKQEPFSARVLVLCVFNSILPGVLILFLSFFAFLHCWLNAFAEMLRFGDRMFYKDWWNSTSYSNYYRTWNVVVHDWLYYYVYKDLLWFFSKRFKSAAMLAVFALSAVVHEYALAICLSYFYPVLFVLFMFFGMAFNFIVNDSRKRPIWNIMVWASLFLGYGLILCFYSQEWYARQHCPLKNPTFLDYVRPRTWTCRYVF
The test is described as follows: Inhibition of cholesterol esterification in the murine macrophage-like cell line J774.A1. Type of test: cell-based. To be noted: J774.A1 cells, ac-LDL loaded, 14C-oleic acid pulse. As to the method: The esterification of cholesterol was determined in the murine macrophage-like cell line J774.A1. Cells were seeded in 35 mm wells at a density of 300,000 cells per well in 2 mls of Dulbecco's Eagle Medium (DMEM) supplemented with 10% fetal bovine serum (FBS). Cells were incubated at 37° C. in an atmosphere of 5% CO2 and 93% humidity. After […] the media was changed to 0.68 mls 10% FBS-DMEM containing 34 μg of acetylated human low density lipoprotein (ac-LDL) to increase the intracellular concentration of cholesterol and promote esterification. At 41 hours, various inhibitors were added to the cells in DMSO (10 μl/ml maximum). At 43 hours, the cells were pulsed with 0.1 mM ^14 C-oleic acid (10,000 dpm/nmol) complexed with BSA (bovine serum albumin) to follow cholesterol ester formation. The experiment was terminated at 45 hours by washing the monolayers 3 times with 3 ml of Tris-buffered saline at 4° C. The lipids were extracted by incubating the monolayers with 1.5 ml of hexane: isopropanol (3:2, v/v) for 30 min. under gentle agitation. During this period, 10,000 dpm ^3 H-cholesterol oleate and 10 μg of unlabeled cholesteryl oleate, oleic acid, triolein and cholesterol were added as an […] standard and carriers. The organic solvent was removed and the cells were washed with an additional 1.0 ml of hexane: isopropanol which was combined with the original extract. The cells were allowed to dry overnight, digested with 2.0 ml of 0.2N sodium hydroxide for 1 hour and an aliquot of the solubilized protein used for protein determination using the Lowry method. […] Extracts were collected in scintillation vials to determine the amount of radioactivity. The conversion of oleic acid to cholesteryl ester in the control averaged 0.54 mmol/hour/mg protein and was increased upon the addition of ac-LDL to about 10.689±0.69 mmol/hour/mg protein.

Turning to `COc1ccc(-c2nc(SCCCCCN(CCOCCO)C(=O)NC(C)C)[nH]c2-c2ccc(OC)cc2)cc1` [Example 284], the pIC50 was 6.32 in test [1] and 5.62 at ACAT.

Regarding `CCCCCCCN(CCOC(=O)CSc1nc(-c2ccc(OC)cc2)c(-c2ccc(OC)cc2)[nH]1)C(=O)Nc1ccc(F)cc1F` [Example 422, N-[2-[2-(4,5-bis(4-methoxyphenyl)-1H-imidazol-2-ylthio)-acetoxy]-ethyl]-N'-(2,4-diflurophenyl)-N -heptyl-urea], the negative logarithm of the IC50 (pIC50) in test [1] is 5.59; at ACAT it was 5.62.

Consider `CCCN(CCOC(=O)CSc1nc(-c2ccccc2)c(-c2ccccc2)[nH]1)C(=O)Nc1ccc(F)cc1F` [Example 421], for which the pIC50 in test [1] is 5.39; on ACAT it was 5.43.

These data come from US5358946A, “Heterocycle-substituted amides, carbamates and ureas as agents for the treatment of atherosclerosis” (The Du Pont Merck Pharmaceutical Company, priority 1992, dated 1994).
